In US20070003525A1, “Hydrogel compositions comprising nucleus pulposus tissue” (priority 2003, published 2007):

Columns and labels:
Format in all cases: cell-based
[1] = tested on: Sheep nucleus cells (SNCs)
Description: The monomer solution was poured into molds and photo-polymerized using long-wave ultraviolet light at 365 nm wavelength. Polymerized hydrogels were placed into tissue culture inserts which were then placed above seeded SNCs. Cytotoxicity of unpolymerized matrix was also determined, by including inserts containing unpolymerized monomer solution. SNC seeded wells containing empty inserts served as controls. SNCs and inserts were completely immersed in TCM. […] The MTS assay measures viability of cells by a calorimetric method, wherein the MTS tetrazolium compound is bio reduced by cells into a colored formazan product which is soluble in TCM. The conversion is accomplished by dehydrogenase enzymes present in metabolically active cells.

[2] = tested on: Sheep nucleus chondrocytes; assay: MTT cytotoxicity of the photo-initiating system
Description: Sheep nucleus chondrocytes were seeded in a 12-well plate at 20,000 cells/well and incubated with TCM. After allowing cells to adhere for over 48 hours, spent media was replaced with TCM containing 0 or 1000 ppm Irgacure 2959. SNCs were then exposed to long wave ultraviolet light at 365 nm wavelength for different lengths of time, followed by incubation at 37° C. MTT assay was performed at 1, 5, and 24 hours post UV exposure to assess viability of cells. The principle of the assay is similar to the MTS assay mentioned before, except that a different tetrazolium compound is used in this method.

[3] = tested on: sheep intervertebral disc nucleus pulposus cells; assay: Alcian blue assay of proteoglycan synthesis, sheep cells; conditions: 10 ng/ml
Description: Human intervertebral disc cells from Example 9 were seeded and grown in 24 well plates in TCM in the presence or absence of exogenous growth factors. At various time points, TCM was aspirated out from the wells and the wells washed 3 times with PBS. The cells were then fixed with 4% paraformaldehyde (pH 7.4) for 10 min. The fixed cells were washed 2 times with PBS and then stained overnight with 0.5% Alcian blue in 0.1N hydrochloric acid (pH 1.5). After overnight staining, excess stain was rinsed out with 3 rinses of PBS. The remaining Alcian blue stain (bound to proteoglycans) was dissolved overnight into 6 M guanidine hydrochloride and the absorbance at 630 nm was measured using a spectrophotometer, providing an indication of the induction of matrix production by exogenous growth factors in human nucleus pulposus cells. […]
Transforming growth factor-β1 (TGF-β1) and a mixture of bone-derived protein growth factors (BP) produced according to U.S. Pat. Nos. 5,290,763, 5,371,191 and 5,563,124, were tested for their effects on stimulation of proteoglycan synthesis in ovine nucleus pulposus cells. […] At these time points, the cells were fixed and the amount of proteoglycan synthesis was measured by the Alcian blue assay as described in Example 10.

[4] = tested on: sheep intervertebral disc nucleus pulposus cells; assay: ELISA of Type II collagen and chondroitin-6-sulfate production; conditions: 7 days, 10 ng/ml
Description: To detect specific antigenic epitopes in the synthesized matrix, sheep intervertebral nucleus pulposus cells from Example 9, seeded and grown in monolayer, were fixed in 2% glutaraldehyde for 1 hour at room temperature. The fixed cells were washed 3 times with TBS for 5 min. each. To block non-specific antibody binding, the cells were incubated in a solution of Tris buffered saline (TBS) containing 1 mM ethylene-diamine-tetraacetic acid (EDTA), 0.05% Tween-20™, and 0.25% bovine serum albumin for 1 hour. The blocking step was followed by 3 washes with TBS for 5 min. each. The cells were incubated with the primary antibody at room temperature for 2.5 hours, and the excess primary antibody was removed by 3 washes with TBS for 5 min. each. A second incubation with blocking buffer was performed for 10 min., followed by 3 washes with TBS. […] The bound primary and secondary antibodies were detected by addition of an enzyme-specific substrate which produced a colored reaction. The colorimetric measurement was performed using a spectrophotometer, providing a quantitative measure of the presence of the bound antibodies. […]
After incubation with growth factors for 7 days, cell cultures were fixed in 2% glutaraldehyde and the quantity of Type II collagen and chondroitin-6-sulfate produced in the cell cultures was detected by ELISA according to the procedure described in Example 11. […]

[5] = tested on: human intervertebral disc nucleus pulposus cells; assay: Alcian blue assay of proteoglycan synthesis, human cells; conditions: 10 ng/ml
Description: (§1) Human intervertebral disc cells from Example 9 were seeded and grown in 24 well plates in TCM in the presence or absence of exogenous growth factors. At various time points, TCM was aspirated out from the wells and the wells washed 3 times with PBS. The cells were then fixed with 4% paraformaldehyde (pH 7.4) for 10 min. The fixed cells were washed 2 times with PBS and then stained overnight with 0.5% Alcian blue in 0.1N hydrochloric acid (pH 1.5). After overnight staining, excess stain was rinsed out with 3 rinses of PBS. The remaining Alcian blue stain (bound to proteoglycans) was dissolved overnight into 6 M guanidine hydrochloride and the absorbance at 630 nm was measured using a spectrophotometer, providing an indication of the induction of matrix production by exogenous growth factors in human nucleus pulposus cells.
TGF-β1 and BP were tested for their effects on stimulation of proteoglycan synthesis in human nucleus cells. Human intervertebral disc nucleus pulposus cells obtained from Disc L5-S1 of a patient were cultured as described in Examples 8 and 9 and seeded into 24-well plates. After the cells adhered to the well surface, multiple dilutions of different growth factors were added. The concentrations of growth factors tested were 10 ng/ml TGF-β1, and 10 and 20 μg/ml of BP. The dilutions were prepared in TCM. The cells were fixed after 5 and 8 days of continuous exposure to growth factors and proteoglycans synthesized were detected by the Alcian blue assay as described in Example 10.
A second experiment to test the effects of TGF-β1 and BP on proteoglycan synthesis was performed on a different human patient from that described in Example 14. Human intervertebral disc cells obtained from another patient were cultured as described in Examples 8 and 9 and seeded into 24 well plates. Growth factors were added after the cells were allowed to adhere overnight. […] After 6 and 9 days the cells were fixed and the amount of proteoglycans synthesized was measured by the Alcian blue assay as described in Example 10.

[6] = tested on: baboon intervertebral disc nucleus pulposus cells; assay: Alcian blue assay of proteoglycan synthesis, baboon cells; conditions: 8 days, 10 ng/ml
Description: as §1
The foregoing procedure was also applied to sheep and baboon intervertebral nucleus pulposus cells from Example 9 to obtain an indication of the induction of matrix production by exogenous growth factors in sheep and baboon nucleus pulposus cells.
TGF-β1 and BP were tested for their effects on stimulation of proteoglycan synthesis in baboon nucleus cells. […] The cells were fixed after 4 and 8 days of continuous exposure to growth factors, and proteoglycan synthesis was detected by the Alcian blue assay as described in Example 10.

Molecule: CC(C)(O)C(=O)c1ccc(OCCO)cc1 [Irgacure 2959]
- cytotoxicity (MTS, absorbance at 570 nm) [1]: cytocompatible
- cytotoxicity (MTT) ([2]; 1000 ppm in TCM, by itself (no free radical production), FIG. 29: 24 hours post-UV): not significantly cytotoxic
- cell death by free radicals from UV light with Irgacure 2959 (MTT) ([2]; 1000 ppm plus 365 nm UV for different lengths of time): significant only at 5 and 10 min of UV exposure

Molecule: C=CN1CCCCCC1=O [vinyl caprolactam]
- cytotoxicity (MTS, absorbance at 570 nm) [1]: cytocompatible

Molecule: Transforming growth factor-β1 [TGF-β1]
- increase in proteoglycan synthesis above 0.5% serum control ([3]; 7 day): not significant
- increase in proteoglycan synthesis above 0.5% serum control ([3]; 10 day): 52%
- increased production of Type II collagen over controls [4]: 115%
- increased production of chondroitin-6-sulfate over controls [4]: 800%
- increase in Alcian blue staining over the control ([5]; Example 14 patient, 8 days): 42%
- more proteoglycans than control ([5]; Example 15 patient, 6 days): 54%
- increased proteoglycan production over controls ([5]; Example 15 patient, 9 days): 74%
- increase in proteoglycan synthesis over the control [6]: 21%
